Measured values as given in patent US20260240842A1, “METHODS TO PREVENT THERAPY RESISTANCE IN MELANOMA VIA BLOCKING GENOMIC INSTABILITY” (THE REGENTS OF THE UNIVERSITY OF CALIFORNIA, priority 2022, published 2026).

Test system: KRAS^G12C NSCLC cell lines (H358, H2122)
Assay: Long-term clonogenic growth, acquired MAPKi resistance in NSCLC cell lines
Assay type: cell-based, human
Settings: combined with MAPKi; FIG. 6G to 6J
From the text: FIGS. 6A-6J. DNA-PKi co-treatment prevents acquired MAPKi-resistance in KRAS^G12 human pancreatic ductal adenocarcinoma and non-small cell lung carcinoma cell lines. FIGS. 6A to 6J: Long-term clonogenic growth of PDAC (MIAPaCa-2, XWR200) (6A to 6F) or NSCLC (H358, H2122) (6G to 6J) cell lines showing acquired-resistant colonies to MEKi alone, type II RAFi+MEKi, or KRAS G12Ci+MEKi and their suppression by indicated co-treatments with DNA-PKi (NU7026) and/or PARPi (ABT888) at indicated concentrations. Top, representative cultures; bottom, quantifications over n=4 fields (mean±SD). Data representative of 2 independent repeats. Seeding densities (cells/well in 6-well dishes) and culture durations: MIAPaCa-2 (10,000; 30 days for 6A-6C), XWR200 (150,000; 23 days for 6D, 30 days for 6E, 26 days for 6F), H358 (40,000; 14 days for 6G, 29 days for 6H, 26 days for 6I), H2122 (20,000, 22 days for 6J). […]
For clonogenic assay, cells were plated at indicated cell densities in six-well plates and treated with inhibitor(s) the next day. […] Formazan was then dissolved in 100 μL DMSO, and the absorbance values were measured using an ELISA reader (SpectraMax Plus 384) at the wavelength of 570 nm, blanked with DMSO solution. […]

SMILES	suppression of acquired MAPKi resistance, number of NSCLC cell lines
C[C@]1(c2nc3c(C(N)=O)cccc3[nH]2)CCCN1 [ABT888, veliparib]	generally ineffective
O=c1cc(N2CCOCC2)oc2c1ccc1ccccc12 [NU7026]	one of two
